Experiments:
[1] = test system: bio-BCL-2 (BCL-2 IM) (DNA, i motif) CAGCCCCGCTCCCGCCCCCTTCCTCCCGCGCCCGCCCCT; assay: SPR; conditions: K+ 100 mM; 20 mM MES, pH 5.5, 25 °C
[2] = molecular target: BCL-2 gene promoter i-motif; assay: SPR binding to BCL-2 promoter i-motif; conditions: MES buffer pH 5.5, 25 °C
Procedure: SPR measurement was performed on a ProteOn XPR36 protein interaction array system (Bio-Rad Laboratories, Hercules, California, USA) using a Neutravidin-coated GLH sensor chip. BCL-2 i-motif binding analysis was performed following a published method without significant modification. For immobilization, 5′-biotin-labeled DNA oligomers at 800 nM annealed in 1 × MES buffer at pH 5.5 by heating at 95 °C for 5 min, were attached to a reptavidin-coated sensor chip. Compounds were prepared through serial dilution with flowing buffer (20 mM MES, 100 mM KCl, pH 5.5 for i-motif) in at least 6 concentrations, which were simultaneously injected at a flow rate of […] for a 120 s of association phase, followed by 250 s of dissociation phase at 25 °C. Langmuir model was used for fitting kinetic data, which was analyzed with ProteOn manager software. KD values were determined through equation KD = kd/ka. Compound A22 was used as a positive control, and other compounds were selected as candidates only if their KD values for binding to BCL-2 i-motif were similar to that of A22.

Aβ1-42 [3] = molecular target: T1, Aβ1-42 (Homo sapiens, UniProt P05067); assay: Congo red binding assay; assay type: biochemical; conditions: 20 μM compound, 72 h
T1 construct: Aβ1-42 was purchased from Gill Biochemicals Ltd (Shanghai, China); purchased Gill Biochemicals Ltd (Shanghai, China)
T1 sequence (P05067 672-713 limits assumed): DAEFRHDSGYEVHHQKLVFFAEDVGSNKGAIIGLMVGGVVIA
Procedure: (§1) A total of 30 μM Congo red (Aladdin, Shanghai, China) solution (20 mM potassium phosphate, 50 mM NaCl, pH 7.4) was prepared and filtered with a 0.45 μm filter. The Aβ1-42 solutions (30 μM) were co-incubated with B14 (20 μM), A22 (20 μM), or Curcumin (20 μM) at 37 °C protected from light for 72h. The Aβ1-42 solution was mixed with equal volume of Congo red solution, followed by incubation for 30 min. A spectral region from 400 nm to 650 nm was measured by using a UV–vis spectrophotometer (AoE, China).
as §1, with “red” for “red (Aladdin, Shanghai, China)”, “μM) and” for “μM), A22 (20 μM), or”, “solution and incubated” for “solution, followed by incubation”, “analyzed” for “measured”, “UV-vis” for “UV–vis”

Aβ1-42 [4] = molecular target: T1, Aβ1-42; assay: Dot blot of Aβ1-42 fibril aggregation; assay type: biochemical; conditions: 20 μM compound, 24 h
Procedure: After incubation at 37 °C for 24 h, 10 μL aliquots of 20 μM Aβ1-42 reaction mixtures were spotted onto nitrocellulose membranes. Membranes were blocked for 2 h with 5 % non-fat milk in TBS. After washing, membranes were incubated with the anti-Aβ fibril antibody (1:1,000, CST, USA) dissolved in TBS containing 3 % bovine serum albumin (BSA, Beyotime, Jiangsu, China) and 0.01 % Tween-20 (Solarbio, Beijing, China), and developed using an alkaline-phosphatase anti-rabbit secondary antibody (1:5,000, Proteintech, China). The bands were then detected using an enhanced chemiluminescence (ECL) kit (Millipore, USA).
After incubation at 37 °C for 24h, 10 μL aliquots of 20 μM Aβ1-42 reactions were spotted onto nitrocellulose membranes. The membranes were blocked for 2 h with 5% non-fat milk in TBS. After washing, the membranes were incubated with the anti-Aβ fibril antibody (1:1000 dilution) dissolved in TBS containing 3% BSA and 0.01% Tween-20, and then developed using an alkaline-phosphatase antirabbit secondary antibody (1:5000 dilution). Invitrogen's Western Breeze Chemiluminescent kit was used to visualize the protein dots, and these dots were imaged using a FUJIFILM Luminescent Image Analyzer LAS-1000CH.

Aβ1-42 [5] = molecular target: T1, Aβ1-42; assay: Thioflavine T fluorescence spectroscopy assay (time course to 96 h); assay type: biochemical; conditions: 20 μM compound, Aβ1-42 incubated for 96 h
Procedure: (§2) The Aβ1-42 solutions (100 μM) were co-incubated with B14 (20 μM) or Curcumin (20 μM) at 37 °C protected from light for 96 h. 30 μL of Aβ1-42 solution was taken at different time points (0 h, 10 h, 24 h, 48 h, 72 h, 96 h), mixed fully with 400 μL of ThT solution (15 μM), and incubated in the dark for 30 min. The fluorescence signal was recorded by using a Cary Eclipse fluorescence spectrophotometer (Varian, USA) with the following setting: excitation wavelength at 440 nm, emission wavelength at 480 nm, and slit width of 20 nm.
as §2, with “μM) and” for “μM) or”, “Aβ1-42 solutions were” for “Aβ1-42 solution was”, “by” for “by using”, “with” for “with the following setting:”

SMILES | KD [1] | Kd [2] | further results
CC1CCN(CCC(=O)Nc2ccc3c(c2)c(=O)c2ccccc2n3-c2ccc3occc3c2)CC1 | > 50 µM |  | 
CCN(CC)CCC(=O)Nc1ccc2c(c1)c(=O)c1ccccc1n2-c1ccc2occc2c1 | > 50 µM |  | 
CN(C)CCC(=O)Nc1ccc2c(c1)c(=O)c1ccccc1n2-c1ccc2occc2c1 | > 50 µM |  | 
CN1CCN(CCC(=O)Nc2ccc3c(c2)c(=O)c2ccccc2n3-c2ccc3occc3c2)CC1 | > 50 µM |  | 
CN1CCN(CCCNc2ccc3c(c2)c(=O)c2cc(NCCCN4CCN(C)CC4)ccc2n3-c2ccc3occc3c2)CC1 | > 50 µM |  | 
CCN(CC)CCCNc1ccc2c(c1)c(=O)c1ccccc1n2-c1ccc2occc2c1 [Compound A1] |  | > 50 µM | 
CN(C)CCCNc1ccc2c(c1)c(=O)c1ccccc1n2-c1ccc2occc2c1 [Compound A2] | > 50 µM | > 50 µM | 
O=c1c2ccccc2n(-c2ccc3occc3c2)c2ccc(NCCN3CCNCC3)cc12 [Compound A3] | > 50 µM | > 50 µM | 
CN1CCN(CCCNc2ccc3c(c2)c(=O)c2ccccc2n3-c2ccc3occc3c2)CC1 [Compound A4] | > 50 µM | > 50 µM | 
O=c1c2ccccc2n(-c2ccc3occc3c2)c2ccc(NCCCN3CCOCC3)cc12 [Compound A5] | > 50 µM | > 50 µM | 
O=c1c2ccccc2n(-c2ccc3occc3c2)c2ccc(NCCN3CCOCC3)cc12 [Compound A6] | > 50 µM | > 50 µM | 
O=c1c2ccccc2n(-c2ccc3occc3c2)c2ccc(NCCCN3CCCC3)cc12 [Compound A7] | > 50 µM | > 50 µM | 
CN(C)CCNc1ccc2c(c1)c(=O)c1ccccc1n2-c1ccc2occc2c1 [Compound A8] | > 50 µM | > 50 µM | 
CCN(CC)CCNc1ccc2c(c1)c(=O)c1ccccc1n2-c1ccc2occc2c1 [Compound A9] | 34.1 µM | 34.1 µM | 
O=c1c2ccccc2n(-c2ccc3occc3c2)c2ccc(NCCc3ccccn3)cc12 [Compound A10] | > 50 µM | > 50 µM | 
O=C(CCCN1CCOCC1)Nc1ccc2c(c1)c(=O)c1ccccc1n2-c1ccc2occc2c1 [Compound A11] | > 50 µM | > 50 µM | 
CC1CCN(C=CC(=O)Nc2ccc3c(c2)c(=O)c2ccccc2n3-c2ccc3occc3c2)CC1 [Compound A12] |  | > 50 µM | 
CCN(C=CC(=O)Nc1ccc2c(c1)c(=O)c1ccccc1n2-c1ccc2occc2c1)CC [Compound A13] |  | > 50 µM | 

SMILES | KD [1] | Kd [2] | further results
CN(C)C=CC(=O)Nc1ccc2c(c1)c(=O)c1ccccc1n2-c1ccc2occc2c1 [Compound A14] |  | > 50 µM | 
CN1CCN(C=CC(=O)Nc2ccc3c(c2)c(=O)c2ccccc2n3-c2ccc3occc3c2)CC1 [Compound A15] |  | > 50 µM | 
O=C(CCN1CCOCC1)Nc1ccc2c(c1)c(=O)c1ccccc1n2-c1ccc2occc2c1 [Compound A16] |  | > 50 µM | 
CCN(CC)CCCNc1ccc2c(c1)c(=O)c1cc(NCCCN(CC)CC)ccc1n2-c1ccc2occc2c1 [Compound B1] |  | > 50 µM | 
CN(C)CCCNc1ccc2c(c1)c(=O)c1cc(NCCCN(C)C)ccc1n2-c1ccc2occc2c1 [Compound B2] | > 50 µM | > 50 µM | 
O=c1c2cc(NCCN3CCNCC3)ccc2n(-c2ccc3occc3c2)c2ccc(NCCN3CCNCC3)cc12 [Compound B3] | > 50 µM | > 50 µM | 
CN1CCN(CCCNc2ccc3c(c2)C(=O)c2cc(NCCCN4CCN(C)CC4)ccc2C3c2ccc3occc3c2)CC1 [Compound B4] |  | > 50 µM | 
O=c1c2cc(NCCCN3CCOCC3)ccc2n(-c2ccc3occc3c2)c2ccc(NCCCN3CCOCC3)cc12 [Compound B5] | > 50 µM | > 50 µM | 
O=c1c2cc(NCCN3CCOCC3)ccc2n(-c2ccc3occc3c2)c2ccc(NCCN3CCOCC3)cc12 [Compound B6] | > 50 µM | > 50 µM | 
O=c1c2cc(NCCCN3CCCC3)ccc2n(-c2ccc3occc3c2)c2ccc(NCCCN3CCCC3)cc12 [Compound B7] | > 50 µM | > 50 µM | 
CN(C)CCNc1ccc2c(c1)c(=O)c1cc(NCCN(C)C)ccc1n2-c1ccc2occc2c1 [Compound B8] | > 50 µM | > 50 µM | 
CCN(CC)CCNc1ccc2c(c1)c(=O)c1cc(NCCN(CC)CC)ccc1n2-c1ccc2occc2c1 [Compound B9] | > 50 µM | > 50 µM | 
O=c1c2cc(NCCc3ccccn3)ccc2n(-c2ccc3occc3c2)c2ccc(NCCc3ccccn3)cc12 [Compound B10] | > 50 µM | > 50 µM | 
O=C(CCCN1CCOCC1)Nc1ccc2c(c1)c(=O)c1cc(NC(=O)CCCN3CCOCC3)ccc1n2-c1ccc2occc2c1 [Compound B11] | > 50 µM | > 50 µM | 
O=C(CCN1CCCC1)Nc1ccc2c(c1)c(=O)c1cc(NC(=O)CCN3CCCC3)ccc1n2-c1ccc2occc2c1 [Compound B12] | > 50 µM | > 50 µM | 
CCN(CC)CCC(=O)Nc1ccc2c(c1)c(=O)c1cc(NC(=O)CCN(CC)CC)ccc1n2-c1ccc2occc2c1 [Compound B13] | > 50 µM | > 50 µM | 
COc1cc(/C=C/C(=O)CC(=O)/C=C/c2ccc(O)c(OC)c2)ccc1O [Curcumin, reference compound] |  |  | absorbance of Congo red in the Aβ1-42 sample (Aβ1-42 [3]): some inhibitory effect, but much lower than B14; formation of Aβ fibers (dot blot) (Aβ1-42 [4]): relatively less significant effect compared with B14; decrease of ThT fluorescence intensity (Aβ1-42 [5]): 20.83 ± 1.68%

— PMC11982498 (Redox Biology, 2025)
